Experimental data published in the supplement of paper PMC10307832.

Experiments:
Assay in all cases: relative viability (nuclei count vs DMSO), 5 days (fraction); higher = more cells survive
[1] = compound: C1CNCCC1C2=CC(=NN2)C3=CC=NC=C3 + O=C(c1cc(Cc2n[nH]c(=O)c3ccccc23)ccc1F)N1CCN(C(=O)C2CC2)CC1 [Olaparib] (partner 8 µM)
In short: (§1)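 Five library-drug doses in √10 steps were combined with a fixed anchor-drug dose, or a single drug was given alone, by pin tool to lung cancer cell lines in 1536-well plates the day after seeding. Nuclei were stained and counted after 5 days. Relative viability is the nuclei count in treated wells over that in vehicle wells, taken as the median of duplicate plates.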

[2] = compound: C1CNCCC1C2=CC(=NN2)C3=CC=NC=C3 + Cc1nc(NC(=O)N2CCC[C@H]2C(N)=O)sc1-c1ccnc(C(C)(C)C(F)(F)F)c1 [Alpelisib] (partner 2 µM)
In short: as §1

[3] = compound: C1CNCCC1C2=CC(=NN2)C3=CC=NC=C3 + C[C@@H](Oc1cc(-c2cnn(C3CCNCC3)c2)cnc1N)c1c(Cl)ccc(F)c1Cl [Crizotinib] (partner 1 µM)
In short: as §1

[4] = compound: C1CNCCC1C2=CC(=NN2)C3=CC=NC=C3 + C[C@]1(O)C[C@@H](c2nc(-c3ccc4ccc(-c5ccccc5)nc4c3)c3c(N)nccn32)C1 [Linsitinib] (partner 1 µM)
In short: as §1

| Cell Line | relative viability ([1]; first compound 0.08 µM) | relative viability ([1]; first compound 0.8 µM) | relative viability ([1]; first compound 2.53 µM) | relative viability ([1]; first compound 8 µM) | relative viability ([2]; first compound 0.08 µM) | relative viability ([2]; first compound 0.8 µM) | relative viability ([2]; first compound 2.53 µM) | relative viability ([2]; first compound 8 µM) | relative viability ([3]; first compound 0.08 µM) | relative viability ([3]; first compound 0.8 µM) | relative viability ([3]; first compound 2.53 µM) | relative viability ([3]; first compound 8 µM) | relative viability ([4]; first compound 0.08 µM) | relative viability ([4]; first compound 0.8 µM) | relative viability ([4]; first compound 2.53 µM) | relative viability ([4]; first compound 8 µM) |
| --- | --- | --- | --- | --- | --- | --- | --- | --- | --- | --- | --- | --- | --- | --- | --- | --- |
| EPLC-272H | 0.973 | 0.761 | 0.935 | 0.801 | 0.99 | 0.774 | 0.953 | 0.983 | 0.922 | 0.937 | 0.91 | 0.867 | 1.15 | 1.15 | 1.22 | 1.17 |
| H3255 | 0.562 | 0.567 | 0.601 | 0.608 | 0.674 | 0.646 | 0.858 | 0.734 | 0.891 | 0.816 | 1.02 | 0.609 | 0.858 | 1.13 | 0.957 | 0.993 |
| HARA | 0.762 | 1.27 | 1.21 | 1.11 | 0.821 | 0.811 | 0.898 | 0.82 | 1.05 | 1.08 | 1.05 | 1.03 | 0.938 | 1.07 | 0.983 | 0.939 |
| HCC-15 | 0.694 | 0.789 | 0.766 | 0.588 | 0.856 | 0.856 | 0.898 | 0.839 | 0.805 | 0.928 | 0.839 | 0.779 | 0.809 | 0.903 | 0.937 | 0.905 |
| HCC-44 | 0.979 | 1.06 | 0.953 | 0.957 | 0.815 | 0.7 | 0.794 | 0.794 | 0.889 | 0.908 | 0.842 | 0.839 | 0.66 | 0.595 | 0.698 | 0.684 |
| HCC-78 | 0.821 |  | 0.985 | 0.748 | 0.344 |  | 0.37 | 0.411 | 0.369 |  | 0.399 | 0.381 | 0.446 |  | 0.513 | 0.61 |
| HCC-366 | 0.341 | 0.412 | 0.498 | 0.36 | 0.561 | 0.233 | 0.426 | 0.378 | 0.462 | 0.559 | 0.551 | 0.536 | 0.55 | 0.756 | 0.712 | 0.622 |
| HCC-827 | 0.597 | 0.0303 | 0.665 | 0.743 | 0.97 | 0.668 | 0.916 | 0.972 | 0.979 | 0.932 | 1.01 | 0.883 | 0.992 | 0.963 | 1.05 | 0.956 |
| HOP-62 | 0.234 | 0.386 | 0.275 | 0.47 | 0.734 | 0.933 | 1.11 | 0.858 | 0.682 | 1.11 | 0.942 | 0.978 | 0.892 | 1.12 | 1.19 | 1.08 |
| IA-LM | 1.02 | 0.916 | 0.87 | 0.846 | 0.834 | 0.763 | 0.762 | 0.837 | 0.842 | 0.839 | 1.14 | 0.92 | 0.717 | 0.893 | 0.958 | 0.621 |
| LC-2-ad | 0.719 | 0.781 | 0.664 | 0.694 | 0.791 | 0.751 | 0.913 | 0.934 | 0.491 | 0.478 | 0.445 | 0.456 | 0.805 | 0.825 | 0.909 | 0.869 |
| LCLC-97TM1 | 0.341 | 0.399 | 0.429 | 0.326 | 0.224 | 0.205 | 0.241 | 0.225 | 0.348 | 0.429 | 0.408 | 0.406 | 0.142 | 0.183 | 0.201 | 0.211 |
| LCLC-103H | 0.79 | 0.839 | 0.717 | 0.723 | 1.05 | 0.966 | 1.05 | 1 | 1.11 | 1.04 | 1.07 | 0.935 | 1.07 | 0.846 | 1.1 | 0.951 |
| LK-2 |  | 0.872 | 0.897 | 0.707 | 1.09 | 1.11 | 1.21 | 1.24 | 0.232 | 0.252 | 0.221 | 0.265 |  | 0.751 | 0.427 | 0.519 |
| LOU-NH91 | 0.927 | 0.963 | 0.974 | 0.877 | 0.698 | 0.677 | 0.811 | 0.749 | 0.718 | 0.733 | 0.78 | 0.742 | 0.85 | 1 | 1.14 | 0.962 |
| LU99A | 0.257 | 0.259 | 0.269 | 0.314 | 0.545 | 0.579 | 0.65 | 0.566 | 0.5 | 0.586 | 0.596 | 0.558 | 0.53 | 0.579 | 0.551 | 0.513 |
| LXF-289 | 1.04 | 1.16 | 0.968 | 1.05 | 1.03 | 0.973 | 1.06 | 1 | 0.842 | 0.88 | 0.801 | 0.837 | 0.963 | 1.04 | 0.981 | 0.9 |
| NCI-H23 | 0.375 |  | 0.403 | 0.349 | 0.614 | 0.691 | 0.713 | 0.69 | 0.431 | 0.499 | 0.499 | 0.518 | 0.5 | 0.642 | 0.675 | 0.644 |
| NCI-H322M | 0.73 | 0.716 | 0.844 | 0.923 | 1.39 | 0.7 | 0.933 | 0.761 | 0.851 | 0.875 | 0.878 | 0.955 | 0.874 | 0.71 | 0.899 | 0.888 |
| NCI-H358 | 0.48 | 0.691 | 0.648 | 0.525 | 0.588 | 0.831 | 0.839 | 0.845 | 0.479 | 0.526 | 0.633 | 0.474 | 0.595 | 0.792 | 0.688 | 0.765 |
| NCI-H441 | 0.422 | 0.673 | 0.57 | 0.567 |  | 0.628 | 0.833 | 0.708 | 0.709 | 0.713 | 0.853 | 0.862 | 0.65 | 0.361 | 0.753 | 0.497 |
